{"source": "patent US11723360B2", "about": "(priority 2018, dated 2023)", "key": {"[1]": {"tested_on": "Meloidogyne incognita", "experiment": "Insecticidal bioassay against root-knot nematodes in 96-well plate", "design": "Lethality Rate (%): dose or concentration left out as unconfirmed", "conditions": "for LC50: Meloidogyne incognita"}, "[2]": {"tested_on": "Caenorhabditis elegans", "experiment": "Insecticidal bioassay against Caenorhabditis elegans in 96-well plate", "type": "in vivo", "conditions": "for LC50: Caenorhabditis elegans", "procedure": "20 μL of 1 mg/mL methylmalonic acid aqueous solution was added to the 96-well plate, and at the same time, purified water was added; the final concentrations of the methylmalonic acid in the well plate was adjusted to […] in order; 40 nematodes were added to each well; and a bioassay system was 200 μL in total, with the purified water as a control. The process was repeated 3 times for each group. They were cultured in an incubator at 16° C.\n20 μL of 1 mg/mL mixed aqueous solution of methylmalonic acid and betaine (mass ratio: 1:1) was added to the 96-well plate, and at the same time, purified water was added; the final concentrations of the compounded solution in the well plate was adjusted to 1000, 100, 25, 16.67, 12.5, 10, 1, 0.5, 0.25 μg/mL in order; and 40 nematodes were added to each well; a bioassay system was 200 μL in total, with the purified water as a control, and 3 times repeated for each group. They were cultured in an incubator at 16° C."}, "[3]": {"tested_on": "Fusarium oxysporum", "experiment": "Mycelium growth rate method, fungal plant pathogens", "type": "cell-based", "design": "key: +: effective; −: ineffective", "conditions": "28° C.", "procedure": "(§1) The mycelia of fungal pathogens were picked and inoculated to a PDA medium for activation. With a mycelium growth rate method, 200 μg/mL methylmalonic acid mother liquid was prepared using sterile water; 4.5 mL of sterile water was added to 0.5 mL of the mother liquid and evenly mixed; fungal masses were picked and placed in a PDA culture medium plate center, and then cultured at 28° C. to observe the results, with the sterile water as a negative control. After the plate was fully covered with the control mycelia, the diameters of the control and treatment colonies were counted with a crossing method.\nas §1, with “μg/mL mixed aqueous solution of” for “μg/mL”, “acid and betaine (mass ratio: 1:1)” for “acid mother liquid”, “the mixed solution” for “the mother liquid”"}, "[4]": {"tested_on": "Botrytis cinerea", "experiment": "Mycelium growth rate method, fungal plant pathogens", "type": "cell-based", "design": "key: +: effective; −: ineffective", "conditions": "28° C.", "procedure": "as §1\nas §1, with “μg/mL mixed aqueous solution of” for “μg/mL”, “acid and betaine (mass ratio: 1:1)” for “acid mother liquid”, “the mixed solution” for “the mother liquid”"}, "[5]": {"tested_on": "Pestalotiopsis theae", "experiment": "Mycelium growth rate method, fungal plant pathogens", "type": "cell-based", "design": "key: +: effective; −: ineffective", "conditions": "28° C.", "procedure": "as §1\nas §1, with “μg/mL mixed aqueous solution of” for “μg/mL”, “acid and betaine (mass ratio: 1:1)” for “acid mother liquid”, “the mixed solution” for “the mother liquid”"}, "[6]": {"tested_on": "Alternaria solani", "experiment": "Mycelium growth rate method, fungal plant pathogens", "type": "cell-based", "design": "key: +: effective; −: ineffective", "conditions": "28° C.", "procedure": "as §1\nas §1, with “μg/mL mixed aqueous solution of” for “μg/mL”, “acid and betaine (mass ratio: 1:1)” for “acid mother liquid”, “the mixed solution” for “the mother liquid”"}, "[7]": {"tested_on": "Corynespora cassiicola", "experiment": "Mycelium growth rate method, fungal plant pathogens", "type": "cell-based", "design": "key: +: effective; −: ineffective", "conditions": "28° C.", "procedure": "as §1\nas §1, with “μg/mL mixed aqueous solution of” for “μg/mL”, “acid and betaine (mass ratio: 1:1)” for “acid mother liquid”, “the mixed solution” for “the mother liquid”"}, "[8]": {"tested_on": "Rhizoctonia solani", "experiment": "Mycelium growth rate method, fungal plant pathogens", "type": "cell-based", "design": "key: +: effective; −: ineffective", "conditions": "28° C.", "procedure": "as §1\nas §1, with “μg/mL mixed aqueous solution of” for “μg/mL”, “acid and betaine (mass ratio: 1:1)” for “acid mother liquid”, “the mixed solution” for “the mother liquid”"}, "[9]": {"tested_on": "Phytophthora capsici", "experiment": "Mycelium growth rate method, fungal plant pathogens", "type": "cell-based", "design": "key: +: effective; −: ineffective", "conditions": "28° C.", "procedure": "as §1\nas §1, with “μg/mL mixed aqueous solution of” for “μg/mL”, “acid and betaine (mass ratio: 1:1)” for “acid mother liquid”, “the mixed solution” for “the mother liquid”"}, "[10]": {"tested_on": "Sclerotinia sclerotiorum", "experiment": "Mycelium growth rate method, fungal plant pathogens", "type": "cell-based", "design": "key: +: effective; −: ineffective", "conditions": "28° C.", "procedure": "as §1\nas §1, with “μg/mL mixed aqueous solution of” for “μg/mL”, “acid and betaine (mass ratio: 1:1)” for “acid mother liquid”, “the mixed solution” for “the mother liquid”"}, "[11]": {"tested_on": "Xanthomonas campestris", "experiment": "Agar plate diffusion method, bacterial plant pathogens", "type": "cell-based", "conditions": "5 μL of 0.1 g/mL on 6 mm filter paper, 30° C."}, "[12]": {"tested_on": "Ralstonia solanacearum", "type": "cell-based"}, "[13]": {"tested_on": "Erwinia carotovora", "experiment": "Agar plate diffusion method, bacterial plant pathogens", "type": "cell-based"}, "[14]": {"tested_on": "fungal plant pathogens", "experiment": "Mycelium growth rate method, summary statement for all fungi tested", "type": "cell-based", "conditions": "Example 5", "procedure": "as §1\nas §1, with “μg/mL mixed aqueous solution of” for “μg/mL”, “acid and betaine (mass ratio: 1:1)” for “acid mother liquid”, “the mixed solution” for “the mother liquid”"}, "[15]": {"conditions": "water, alcohol, ether; cited from earlier work"}, "[16]": {"conditions": "read-out: LC50 against the Meloidogyne incognita"}, "[17]": {"conditions": "read-out: LC50 value against the Meloidogyne incognita"}, "[18]": {"conditions": "200 μg/mL mother liquid, 0.5 mL + 4.5 mL sterile water, PDA"}, "[19]": {"conditions": "Example 9: 200 μg/mL mixed aqueous solution of methylmalonic acid and betaine (1:1), 0.5 mL + 4.5 mL water"}, "[20]": {"conditions": "5 μL of 0.1 g/mL on 6 mm filter paper, 30° C."}}, "note": "Where two headings read alike, the source gives them in different places."}
{"smiles": "C[N+](C)(C)CC(=O)O", "note": "[betaine]", "values": [{"measurement": "LC50", "setting": "[1]; [16]", "result": 75.2, "unit": "µg/mL"}, {"measurement": "LC50", "setting": "[1]; [17]", "result": 75.2, "unit": "µg/mL"}, {"measurement": "LC50", "setting": "[2]; text of Examples 3 and 7, read-out: LC50 against the Caenorhabditis elegans", "result": 14.8, "unit": "µg/mL"}]}
{"smiles": "CC(C(=O)O)C(=O)O", "note": "[methylmalonic acid]", "values": [{"measurement": "Microbicidal Effect", "setting": "[3]; [18]", "result": "−"}, {"measurement": "Microbicidal Effect", "setting": "[3]; [19]", "result": "−"}, {"measurement": "Microbicidal Effect", "setting": "[4]; [18]", "result": "−"}, {"measurement": "Microbicidal Effect", "setting": "[4]; [19]", "result": "−"}, {"measurement": "Microbicidal Effect", "setting": "[5]; [18]", "result": "−"}, {"measurement": "Microbicidal Effect", "setting": "[5]; [19]", "result": "−"}, {"measurement": "Microbicidal Effect", "setting": "[6]; [18]", "result": "−"}, {"measurement": "Microbicidal Effect", "setting": "[6]; [19]", "result": "−"}, {"measurement": "Microbicidal Effect", "setting": "[7]; [18]", "result": "−"}, {"measurement": "Microbicidal Effect", "setting": "[7]; [19]", "result": "−"}, {"measurement": "Microbicidal Effect", "setting": "[8]; [18]", "result": "−"}, {"measurement": "Microbicidal Effect", "setting": "[8]; [19]", "result": "−"}, {"measurement": "Microbicidal Effect", "setting": "[9]; [18]", "result": "−"}, {"measurement": "Microbicidal Effect", "setting": "[9]; [19]", "result": "−"}, {"measurement": "Microbicidal Effect", "setting": "[10]; [18]", "result": "−"}, {"measurement": "Microbicidal Effect", "setting": "[10]; [19]", "result": "−"}, {"measurement": "Lethality Rate (%)", "setting": "[1]; Dose 1", "result": 8.1, "unit": "%"}, {"measurement": "Lethality Rate (%)", "setting": "[1]; Dose 10", "result": 12.5, "unit": "%"}, {"measurement": "Lethality Rate (%)", "setting": "[1]; Dose 12.5", "result": 29.3, "unit": "%"}, {"measurement": "Lethality Rate (%)", "setting": "[1]; Dose 16.67", "result": 76.3, "unit": "%"}, {"measurement": "Lethality Rate (%)", "setting": "[1]; Dose 25", "result": 81.1, "unit": "%"}, {"measurement": "Lethality Rate (%)", "setting": "[1]; Dose 50", "result": 80, "unit": "%"}, {"measurement": "Lethality Rate (%)", "setting": "[1]; Dose 100", "result": 97.5, "unit": "%"}, {"measurement": "Lethality Rate (%)", "setting": "[1]; Dose 1000", "result": 97.4, "unit": "%"}, {"measurement": "LC50", "setting": "[1]; [16]", "result": 13.1, "unit": "µg/mL"}, {"measurement": "LC50", "setting": "[1]; [17]", "result": 13.1, "unit": "µg/mL"}, {"measurement": "LC50", "setting": "[1]; read-out: Medial Lethal Concentration (LC50, ug/mL)", "result": 13.1, "unit": "µg/mL"}, {"measurement": "Diameter of Inhibition Zone", "setting": "[11]", "result": 0, "unit": "mm"}, {"measurement": "Microbicidal Effect", "setting": "[11]", "result": "−"}, {"measurement": "Diameter of Inhibition Zone", "setting": "[12]; [20]", "result": 12, "unit": "mm"}, {"measurement": "Microbicidal Effect", "setting": "[12]; [20]", "result": "++ (with microbicidal activity, and the diameter of an inhibition zone being more than 10 mm)"}, {"measurement": "microbicidal activity against the Pseudomonas solanacearum", "setting": "[12]; 5 μL of 0.1 g/mL, Example 4", "result": "showed a microbicidal activity"}, {"measurement": "Diameter of Inhibition Zone", "setting": "[13]; [20]", "result": 6.9, "unit": "mm"}, {"measurement": "Microbicidal Effect", "setting": "[13]; [20]", "result": "+ (with microbicidal activity, the diameter of an inhibition zone being less than 10 mm)"}, {"measurement": "microbicidal activity against the Erwinia carotovora", "setting": "[13]; 5 μL of 0.1 g/mL, Example 4", "result": "showed a microbicidal activity"}, {"measurement": "LC50", "setting": "[2]; 16° C., table value, read-out: Medial Lethal Concentration (LC50, ug/mL)", "result": 1.2, "unit": "µg/mL"}, {"measurement": "LC50", "setting": "[2]; read-out: LC50 value against the Caenorhabditis elegans, text of Example 3", "result": 1.2, "unit": "µg/mL"}, {"measurement": "Lethality Rate (%)", "setting": "[2]; Dose 1 pg/mL", "result": 18.4, "unit": "%"}, {"measurement": "Lethality Rate (%)", "setting": "[2]; Dose 10 pg/mL", "result": 70.0, "unit": "%"}, {"measurement": "Lethality Rate (%)", "setting": "[2]; Dose 16.67 pg/mL", "result": 94.9, "unit": "%"}, {"measurement": "Lethality Rate (%)", "setting": "[2]; Dose 25 pg/mL", "result": 90.5, "unit": "%"}, {"measurement": "Lethality Rate (%)", "setting": "[2]; Dose 100 pg/mL", "result": 97.4, "unit": "%"}, {"measurement": "Lethality Rate (%)", "setting": "[2]; Dose 1000 pg/mL", "result": 97.5, "unit": "%"}, {"measurement": "microbicidal activity against the fungal plant pathogens", "setting": "[14]", "result": "showed no microbicidal activity"}, {"measurement": "solubility (physical properties)", "setting": "[15]", "result": "soluble in water, alcohol and ether"}]}
